Experimental findings from ChEMBL document CHEMBL1131819, “Human chymase inhibitors based on the 1,2,5-thiadiazolidin-3-one 1,1 dioxide scaffold” (Bioorg Med Chem Lett, 1999) are described below.

Calls of active or inactive are those of the source. No cut-off for these calls is given here.

In assay [1] the target is T1, Chymase (Homo sapiens) (UniProt P23946).
T1 sequence (whole entry): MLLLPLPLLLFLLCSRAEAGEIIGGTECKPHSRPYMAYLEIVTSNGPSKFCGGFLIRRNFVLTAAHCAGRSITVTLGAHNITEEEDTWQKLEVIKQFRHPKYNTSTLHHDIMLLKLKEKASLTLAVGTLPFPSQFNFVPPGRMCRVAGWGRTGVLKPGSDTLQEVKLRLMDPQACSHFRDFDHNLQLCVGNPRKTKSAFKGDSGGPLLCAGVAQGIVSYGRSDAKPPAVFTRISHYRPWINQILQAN
The assay can be described thus: Second order rate constant for the inhibition of human skin chymase.

Assay [2] concerns the target T2, Cathepsin G (Homo sapiens) (UniProt P08311).
T2 sequence (whole entry): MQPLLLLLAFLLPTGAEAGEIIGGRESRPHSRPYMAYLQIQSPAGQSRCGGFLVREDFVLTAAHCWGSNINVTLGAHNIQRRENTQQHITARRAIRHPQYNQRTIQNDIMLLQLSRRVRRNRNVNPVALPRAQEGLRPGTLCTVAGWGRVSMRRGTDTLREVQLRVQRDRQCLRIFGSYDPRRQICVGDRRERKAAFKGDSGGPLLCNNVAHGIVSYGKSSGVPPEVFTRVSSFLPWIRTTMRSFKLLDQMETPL
The assay can be described thus: Second order rate constant for the inhibition of leukocyte Cathepsin G (Cat G).

For `CC(=O)OCN1C(=O)C(Cc2ccccc2)N(Cc2ccccc2)S1(=O)=O` (configuration not stated), the figures for the K inact/Ki in assay [1] and in assay [2] were 21800 M⁻¹ s⁻¹ and 10600 M⁻¹ s⁻¹, respectively.

On to `O=C(O)CCS(=O)(=O)CN1C(=O)C(Cc2ccccc2)N(Cc2ccccc2)S1(=O)=O` (configuration not stated), for which the K inact/Ki stood at 23400 M⁻¹ s⁻¹ in assay [1] and 17400 M⁻¹ s⁻¹ in assay [2].

`CS(=O)(=O)CN1C(=O)C(Cc2ccccc2)N(Cc2ccccc2)S1(=O)=O` (configuration not stated): the figures for the K inact/Ki in assay [1] and in assay [2] were 4600 M⁻¹ s⁻¹ and 8500 M⁻¹ s⁻¹, respectively.

Consider `O=C1C(Cc2ccccc2)N(Cc2ccccc2)S(=O)(=O)N1CSc1nc2ccccc2o1` (configuration not stated), for which the K inact/Ki in assay [1] is 5430 M⁻¹ s⁻¹; in assay [2], 17100 M⁻¹ s⁻¹.

Take `O=C(O)c1cccc(S(=O)(=O)CN2C(=O)C(Cc3ccccc3)N(Cc3ccccc3)S2(=O)=O)c1` (configuration not stated): the values for the K inact/Ki in assay [1] and in assay [2] were 13500 M⁻¹ s⁻¹ and 20700 M⁻¹ s⁻¹, respectively.

Regarding `O=C1C(Cc2ccccc2)N(Cc2ccccc2)S(=O)(=O)N1CS(=O)(=O)c1ccccc1` (configuration not stated), the K inact/Ki in assay [1] stood at 12500 M⁻¹ s⁻¹; in assay [2], 11200 M⁻¹ s⁻¹.

Turning to `O=C(OCN1C(=O)C(Cc2ccccc2)N(Cc2ccccc2)S1(=O)=O)C(O)c1ccccc1` (configuration not stated), the K inact/Ki in assay [1] worked out at 39900 M⁻¹ s⁻¹; in assay [2], 12300 M⁻¹ s⁻¹.

As to `O=C(O)c1ccccc1S(=O)(=O)CN1C(=O)C(Cc2ccccc2)N(Cc2ccccc2)S1(=O)=O` (configuration not stated), the “K inact/Ki” value in assay [1] was “inactive”. The K inact/Ki in assay [2] was 350 M⁻¹ s⁻¹.

Turning to `CN1C(Cc2ccccc2)C(=O)N(CSc2nc3ccccc3o2)S1(=O)=O` (configuration not stated), the K inact/Ki in assay [1] was 6250 M⁻¹ s⁻¹; in assay [2], 430 M⁻¹ s⁻¹.

As for `O=C(O)c1ccc(S(=O)(=O)CN2C(=O)C(Cc3ccccc3)N(Cc3ccccc3)S2(=O)=O)cc1` (configuration not stated), the results for the K inact/Ki in assay [1] and in assay [2] were 186000 M⁻¹ s⁻¹ and 66700 M⁻¹ s⁻¹, respectively.

As for `CC(O)C(=O)OCN1C(=O)C(Cc2ccccc2)N(Cc2ccccc2)S1(=O)=O` (configuration not stated), the K inact/Ki in assay [1] amounted to 38500 M⁻¹ s⁻¹; in assay [2], 12700 M⁻¹ s⁻¹.

With `O=C(CO)OCN1C(=O)C(Cc2ccccc2)N(Cc2ccccc2)S1(=O)=O` (configuration not stated), the K inact/Ki in assay [1] stood at 30500 M⁻¹ s⁻¹; in assay [2], 12800 M⁻¹ s⁻¹.

Consider `O=C1C(Cc2ccccc2)N(Cc2ccccc2)S(=O)(=O)N1CSc1nnc(-c2ccccc2)o1` (configuration not stated), for which the K inact/Ki was 5090 M⁻¹ s⁻¹ in assay [1] and 490 M⁻¹ s⁻¹ in assay [2].

Turning to `O=C(O)CS(=O)(=O)CN1C(=O)C(Cc2ccccc2)N(Cc2ccccc2)S1(=O)=O` (configuration not stated), the K inact/Ki in assay [1] turned out to be 10800 M⁻¹ s⁻¹; in assay [2], 25200 M⁻¹ s⁻¹.

For the molecule `O=C(O)CC(=O)OCN1C(=O)C(Cc2ccccc2)N(Cc2ccccc2)S1(=O)=O` (configuration not stated), the K inact/Ki in assay [1] turned out to be 45700 M⁻¹ s⁻¹; in assay [2], 22700 M⁻¹ s⁻¹.

Take `Nc1ccc2nc(SCN3C(=O)C(Cc4ccccc4)N(Cc4ccccc4)S3(=O)=O)sc2c1` (configuration not stated): the K inact/Ki in assay [1] turned out to be 14700 M⁻¹ s⁻¹; in assay [2] it was 15700 M⁻¹ s⁻¹.
